Assay results from ChEMBL document CHEMBL3779788, “Facile synthesis of 1,3-thiazolidin-4-ones as antitubercular agents” (Bioorg Med Chem Lett, 2016).
In brackets after ≈: the same amount, converted by molar mass.

Key:
[1] = tested on: Mycobacterium tuberculosis; assay: Antitubercular activity against dormant Mycobacterium tuberculosis H37Ra assessed as growth inhibition at 30 ug/mL by XTT reduction menadione assay; format: functional; conditions: read-out: GI
[2] = tested on: Mycobacterium bovis BCG str. ATCC 35743; assay: (§1) Antitubercular activity against dormant Mycobacterium bovis BCG ATCC 35743 by NR assay; format: functional
[3] = as §1; format: functional, Mycobacterium bovis BCG str. ATCC 35743
[4] = Cytotoxicity against human A549 cells at 30 ug/mL by MTT assay; format: cell-based; conditions: read-out: INH
[5] = Cytotoxicity against human MCF7 cells at 3 ug/mL by MTT assay; format: cell-based; conditions: read-out: INH
[6] = tested on: Mycobacterium tuberculosis; assay: Antitubercular activity against dormant Mycobacterium tuberculosis H37Ra assessed as growth inhibition at 3 ug/mL by XTT reduction menadione assay; format: functional; conditions: read-out: GI
[7] = Cytotoxicity against human MCF7 cells at 30 ug/mL by MTT assay; format: cell-based; conditions: read-out: INH
[8] = Cytotoxicity against human HCT116 cells after 48 and 72 hrs by MTT assay; format: cell-based, HCT-116; conditions: for GI50 at 72 h: HCT116 cells; for GI90: hct-116, 72 h
[9] = Cytotoxicity against human A549 cells at 3 ug/mL by MTT assay; format: cell-based; conditions: read-out: INH
[10] = tested on: Pseudomonas; assay: Antibacterial activity against Pseudomonas after 18 hrs by broth dilution method; format: functional, organism-based
[11] = tested on: Bacillus subtilis; assay: Antibacterial activity against Bacillus subtilis after 18 hrs by broth dilution method; format: functional, organism-based
[12] = tested on: MCF7; assay: (§2) Cytotoxicity against human MCF7 cells after 48 and 72 hrs by MTT assay; format: cell-based; conditions: mcf7, 72 h
[13] = as §2; format: cell-based; conditions: MCF7 cells
[14] = tested on: Mycobacterium tuberculosis; assay: Antitubercular activity against dormant Mycobacterium tuberculosis H37Ra assessed as growth inhibition at 10 ug/mL by XTT reduction menadione assay; format: functional; conditions: read-out: GI
[15] = tested on: Mycobacterium bovis BCG str. ATCC 35743; assay: Antitubercular activity against dormant Mycobacterium bovis BCG ATCC 35743 assessed as growth inhibition at 3 ug/mL by NR assay; format: functional
[16] = tested on: Mycobacterium bovis BCG str. ATCC 35743; assay: Antitubercular activity against dormant Mycobacterium bovis BCG ATCC 35743 assessed as growth inhibition at 30 ug/mL by NR assay; format: functional
[17] = Cytotoxicity against human A549 cells at 10 ug/mL by MTT assay; format: cell-based; conditions: read-out: INH
[18] = tested on: Escherichia coli; assay: Antibacterial activity against Escherichia coli after 18 hrs by broth dilution method; format: functional, organism-based
[19] = tested on: Staphylococcus aureus; assay: Antibacterial activity against Staphylococcus aureus after 18 hrs by broth dilution method; format: functional, organism-based
[20] = Cytotoxicity against human MCF7 cells at 10 ug/mL by MTT assay; format: cell-based; conditions: read-out: INH
[21] = Cytotoxicity against human HCT116 cells at 10 ug/mL by MTT assay; format: cell-based, HCT-116; conditions: read-out: INH
[22] = Cytotoxicity against human HCT116 cells at 3 ug/mL by MTT assay; format: cell-based, HCT-116; conditions: read-out: INH
[23] = tested on: Mycobacterium bovis BCG str. ATCC 35743; assay: Antitubercular activity against dormant Mycobacterium bovis BCG ATCC 35743 assessed as growth inhibition at 10 ug/mL by NR assay; format: functional
[24] = (§3) Cytotoxicity against human A549 cells after 48 and 72 hrs by MTT assay; format: cell-based; conditions: A549 cells
[25] = tested on: A549; assay: as §3; format: cell-based; conditions: a549, 72 h
[26] = tested on: Mycobacterium tuberculosis; assay: Antitubercular activity against dormant Mycobacterium tuberculosis H37Ra by XTT reduction menadione assay; format: functional, organism-based
[27] = Cytotoxicity against human HCT116 cells at 30 ug/mL by MTT assay; format: cell-based, HCT-116; conditions: read-out: INH

Row | SMILES | inhibition of growth at 30 µg/mL [1] | IC90 [2] | IC50 [3] | cytotoxicity at 30 ug/mL [4] | cytotoxicity at 3 ug/mL [5] | inhibition of growth at 3 µg/mL [6] | cytotoxicity at 30 ug/mL [7] | GI50 at 72 h [8] | GI90 [8] | cytotoxicity at 3 ug/mL [9] | IC50 [10] | MIC [10] | IC50 [11] | MIC [11] | GI90 [12] | GI50 at 72 h [13] | inhibition of growth at 10 µg/mL [14] | growth inhibition (GI) [15] | growth inhibition (GI) [16] | cytotoxicity at 10 ug/mL [17] | other results
1 | O=C1CSC(c2ccc(Br)cc2)N1c1ccccc1 (stereo not given) | 97.7% | > 30 µg/mL | > 30 µg/mL | 0% | 22.1% | -33.2% | 32.8% | > 100 µg/mL | > 100 µg/mL | 0% | > 30 µg/mL | > 30 µg/mL | > 30 µg/mL | > 30 µg/mL | > 100 µg/mL | > 100 µg/mL | 66.4% | 48.7% | 48.8% | 0% | IC50 [18]: > 30 µg/mL; MIC [18]: > 30 µg/mL; IC50 [19]: > 30 µg/mL; MIC [19]: > 30 µg/mL; cytotoxicity at 10 ug/mL [20]: 23.8%; cytotoxicity at 10 ug/mL [21]: 4.9%; cytotoxicity at 3 ug/mL [22]: 2.4%; growth inhibition (GI) [23]: 44.4%; GI50 at 72 h [24]: > 100 µg/mL; GI90 [25]: > 100 µg/mL; IC50 [26]: 8.9 µg/mL (≈ 26.6 µM); IC90 [26]: 25.2 µg/mL (≈ 75.4 µM); cytotoxicity at 30 ug/mL [27]: 10.1%
2 | COc1ccc(C2SCC(=O)N2c2ccccc2)cc1 (stereo not given) | 83.3% | > 30 µg/mL | 8.7 µg/mL (≈ 30.5 µM) | -4.3% | -2.6% | 45.1% | 18.3% | > 100 µg/mL | > 100 µg/mL | 0% | > 30 µg/mL | > 30 µg/mL | > 30 µg/mL | > 30 µg/mL | > 100 µg/mL | > 100 µg/mL | 74.1% | 23.2% | 85.9% | 0% | IC50 [18]: > 30 µg/mL; MIC [18]: > 30 µg/mL; IC50 [19]: > 30 µg/mL; MIC [19]: > 30 µg/mL; cytotoxicity at 10 ug/mL [20]: 12.6%; cytotoxicity at 10 ug/mL [21]: 7.2%; cytotoxicity at 3 ug/mL [22]: -5.4%; growth inhibition (GI) [23]: 56.1%; GI50 at 72 h [24]: > 100 µg/mL; GI90 [25]: > 100 µg/mL; IC50 [26]: 4.2 µg/mL (≈ 14.7 µM); IC90 [26]: > 30 µg/mL; cytotoxicity at 30 ug/mL [27]: 8.4%
3 | O=C1CSC(c2ccc(F)cc2)N1c1ccccc1 (stereo not given) | 92.2% | > 30 µg/mL | 20.9 µg/mL (≈ 76.5 µM) | 0% | -4.1% | 25.6% | 33% | > 100 µg/mL | > 100 µg/mL | 0% | > 30 µg/mL | > 30 µg/mL | > 30 µg/mL | > 30 µg/mL | > 100 µg/mL | > 100 µg/mL | 73.2% | -10.7% | 80.2% | 0% | IC50 [18]: > 30 µg/mL; MIC [18]: > 30 µg/mL; IC50 [19]: > 30 µg/mL; MIC [19]: > 30 µg/mL; cytotoxicity at 10 ug/mL [20]: 10.8%; cytotoxicity at 10 ug/mL [21]: 14.6%; cytotoxicity at 3 ug/mL [22]: -0.5%; growth inhibition (GI) [23]: 14.4%; GI50 at 72 h [24]: > 100 µg/mL; GI90 [25]: > 100 µg/mL; IC50 [26]: 6.8 µg/mL (≈ 24.9 µM); IC90 [26]: 27.5 µg/mL (≈ 101 µM); cytotoxicity at 30 ug/mL [27]: 23.5%
4 | Cc1ccc(C2SCC(=O)N2c2ccc(F)cc2)cc1 (stereo not given) | 51.3% | > 30 µg/mL | > 30 µg/mL | -11.4% | 22.3% | 10.9% | 37.5% | > 100 µg/mL | > 100 µg/mL | 0% | > 30 µg/mL | > 30 µg/mL | > 30 µg/mL | > 30 µg/mL | > 100 µg/mL | > 100 µg/mL | -37% | -3% | -3.9% | 0% | IC50 [18]: > 30 µg/mL; MIC [18]: > 30 µg/mL; IC50 [19]: > 30 µg/mL; MIC [19]: > 30 µg/mL; cytotoxicity at 10 ug/mL [20]: 37.7%; cytotoxicity at 10 ug/mL [21]: 9.1%; cytotoxicity at 3 ug/mL [22]: 1.1%; growth inhibition (GI) [23]: -4%; GI50 at 72 h [24]: > 100 µg/mL; GI90 [25]: > 100 µg/mL; IC50 [26]: 29.8 µg/mL (≈ 104 µM); IC90 [26]: > 30 µg/mL; cytotoxicity at 30 ug/mL [27]: 29.6%
5 | O=C1CSC(c2ccccc2)N1c1ccc(F)cc1 (stereo not given) | 70% | > 30 µg/mL | > 30 µg/mL | 11% | -3.9% | 7.5% | 7.5% | > 100 µg/mL | > 100 µg/mL | -13.4% | > 30 µg/mL | > 30 µg/mL | > 30 µg/mL | > 30 µg/mL | > 100 µg/mL | > 100 µg/mL | 31.4% | 27.7% | 31% | 0% | IC50 [18]: > 30 µg/mL; MIC [18]: > 30 µg/mL; IC50 [19]: > 30 µg/mL; MIC [19]: > 30 µg/mL; cytotoxicity at 10 ug/mL [20]: 0%; cytotoxicity at 10 ug/mL [21]: 5.3%; cytotoxicity at 3 ug/mL [22]: -5.4%; growth inhibition (GI) [23]: 19.5%; GI50 at 72 h [24]: > 100 µg/mL; GI90 [25]: > 100 µg/mL; IC50 [26]: 19.8 µg/mL (≈ 72.4 µM); IC90 [26]: > 30 µg/mL; cytotoxicity at 30 ug/mL [27]: -6%
